Data from US9956232B2, “Dialkyl-phosphinoyl-alkane (Dapa) compounds and compositions for treatment of lower gastrointestinal tract disorders” (priority 2016, dated 2018).
Values joined by “and” are separate entries in the source; they are usually repeats but may differ in a detail not shown here. Equal values may be shown once. Read-outs that look alike come from different tables or passages of the source.

Legend:
[1] = tested on: human circular smooth muscle; assay: Spontaneous contractions of human colon circular smooth muscle strips in organ bath; conditions: for IC50: read-out: median inhibitory concentration (IC50)
Description: In this present study, Dapa was examined by Amato in her test system. […] As shown in the FIG. 3, DAPA-2-5, prepared as a solution dissolved in distilled water, produced a dose-dependent reduction of the amplitude of human colon smooth muscle contractions when it was added to the organic bath.
The experimental procedures were approved by the Ethics Committee, University of Palermo, Italy. Human distal colon samples were obtained after informed consent from patients without LGIT disorders. The specimens were immediately placed in preoxygenated Krebs solution and stored overnight at 4° C. Circular muscular strips (4 mm wide by 10 mm long) were cut and suspended in a four-channel organ bath and connected to an isometric force transducer (FORT 25, Ugo Basile, Biological Research Apparatus, Comerio, Va., Italy). The organ bath contained 8 mL of oxygenated Krebs solution at 37° C. Mechanical activity was analyzed using the PowerLab/400 system (Ugo Basile). A tension of 1 g was applied, and strips allowed to equilibrate until spontaneous phasic contractions were recorded. Dapa compounds were added at step concentrations of 1 to 300 μM to the organ bath, with washing in between, and the contractions recorded after 4 min when the drug effect stabilizes. The TRPM8 antagonist, 5-BT (10^−5 M), was added at least 15 min before Dapa.

TRPM8 = TRPM8 (Homo sapiens, UniProt Q7Z2W7); assay: TRPM8 receptor agonist assay (Fluo-8 calcium, FLIPR); format: cell-based; parameters: host or cells: CHO cells, stably transfected
TRPM8, sequence (Q7Z2W7 whole entry): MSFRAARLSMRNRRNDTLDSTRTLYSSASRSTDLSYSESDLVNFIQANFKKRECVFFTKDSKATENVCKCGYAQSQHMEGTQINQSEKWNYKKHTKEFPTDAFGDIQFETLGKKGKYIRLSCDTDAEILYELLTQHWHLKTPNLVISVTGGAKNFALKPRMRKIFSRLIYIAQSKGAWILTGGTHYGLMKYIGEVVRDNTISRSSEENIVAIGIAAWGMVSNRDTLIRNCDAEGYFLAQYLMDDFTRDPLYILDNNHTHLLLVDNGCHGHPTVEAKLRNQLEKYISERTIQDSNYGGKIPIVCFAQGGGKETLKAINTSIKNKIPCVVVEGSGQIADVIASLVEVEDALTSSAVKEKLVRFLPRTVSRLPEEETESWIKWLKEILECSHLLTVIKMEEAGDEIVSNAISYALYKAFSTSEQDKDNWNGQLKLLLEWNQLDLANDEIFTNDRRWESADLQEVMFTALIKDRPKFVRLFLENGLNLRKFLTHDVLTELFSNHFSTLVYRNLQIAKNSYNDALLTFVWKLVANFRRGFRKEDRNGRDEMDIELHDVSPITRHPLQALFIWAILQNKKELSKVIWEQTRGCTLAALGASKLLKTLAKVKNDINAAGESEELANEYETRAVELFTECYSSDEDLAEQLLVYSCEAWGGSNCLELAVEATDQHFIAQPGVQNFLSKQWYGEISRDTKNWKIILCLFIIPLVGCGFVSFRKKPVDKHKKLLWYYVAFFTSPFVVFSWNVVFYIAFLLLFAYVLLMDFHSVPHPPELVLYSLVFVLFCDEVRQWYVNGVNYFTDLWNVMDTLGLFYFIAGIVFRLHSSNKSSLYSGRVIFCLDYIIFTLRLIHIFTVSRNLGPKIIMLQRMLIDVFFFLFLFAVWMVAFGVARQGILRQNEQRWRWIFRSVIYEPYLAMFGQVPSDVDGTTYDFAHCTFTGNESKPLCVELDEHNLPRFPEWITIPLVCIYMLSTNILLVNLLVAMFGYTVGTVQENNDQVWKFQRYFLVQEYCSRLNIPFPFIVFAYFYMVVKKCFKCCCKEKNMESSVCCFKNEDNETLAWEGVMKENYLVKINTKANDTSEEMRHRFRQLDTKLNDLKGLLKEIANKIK
Description: Compounds were tested on (CHO) cells stably transfected with human TRPM8 cDNAs using a Fluo-8 calcium kit and a Fluorescence Imaging Plate Reader ([…]™) instrument. […] Solutions were prepared by diluting stock solutions in a HEPES-buffered physiological saline (HBPS) solution. Test compound and control formulations were loaded in polypropylene or glass-lined 384-well plates, and placed into the FLIPR instrument (Molecular Devices Corporation, Union City, Calif., USA). Each was tested at 8 concentrations with n=4 replicates per determination. […] For […]™ assay, cells were plated in 384-well black wall, flat clear-bottom microtiter plates (Type: BD Biocoat Poly-D-Lysine Multiwell Cell Culture Plate) at approximately 30,000 cells per well. Cells were incubated at 37° C. overnight to reach a near confluent monolayer appropriate for use in a fluorescence assay. The test procedure was to remove the growth media and to add 40 μL of HBPS containing Fluo-8 for 30 minutes at 37° C. 10 μL of test compound, vehicle, or control solutions in HBPS were added to each well and read for 4 minutes. Concentration-response data were analysed via the FLIPR Control software that is supplied with the FLIPR System (MDS-AT) and fitted to a Hill equation.

[2] = tested on: heat-induced edema in the anesthetized rat paw; assay: Heat-induced edema in the anesthetized rat paw; format: in vivo; conditions: 20 mg/mL, 0.3 mL per paw, 30 min before 58° C. water 1 min; relative to contralateral paw
Description: Inflammation is defined as the reaction of vascularized living tissue to local injury [Cotran, R S. 1989. Inflammation and repair. In Robbins: Pathologic Basis of Disease, ed. S. L. Robbins, R. S. Cotran, V. Kumar, 2:39-86. Philadelphia: Saunders. 4th ed.]. The characteristic signs of inflammation are redness, swelling, heat, and pain (and loss of function). The anti-inflammatory properties of the DAPA compounds were studied in a model of heat-induced vascular leakage [Wei et al. Method of inhibiting inflammatory response. U.S. Pat. No. 4,801,612; Wei et al., Anti-inflammatory peptide agonists. Annual Review Pharmacol Toxicol. 33:9-108, 1993]. When the paws of pentobarbital-anesthetized rats (200 to 300 g body weight) are immersed in 58° C. water for 1 min, the normal paw volume of about 1.8 mL was increased by ˜88% within 30 min, the swelling being due to an increase in water content of the paw.
Test compounds were dissolved in 20% water-80% R-1,2-propanediol at 20 mg/mL. The solutions were applied to the paw skin of pentobarbital-anesthetized rats (200 to 300 g body weight) at 0.3 mL per paw, using a syringe attached to a blunt 21 gauge needle covered at its tip with a piece of polyethylene 60 tubing. After distributing the solution over the paw, the paw was tightly enclosed in a plastic finger cut from a disposable glove. The contralateral paw [control] received only the vehicle. Thirty min after application, both paws were immersed in 58° C. water for 1 min. Thirty min after immersion, both paws were cut at ankle joint with scissors and weighed.
This degree of inhibition is significant for tissue protection as the injury stimulus is of supra-maximal intensity. The DAPA-2-5 effect was apparent to the untrained observer.

**Q.** `CCCCCP(=O)(C(C)CC)C(C)CC` (stereo not drawn) [DAPA-2-5, 1-Di(sec-butyl) phosphinoyl-pentane] was tested. Which IC50 ([1]; amplitude of spontaneous contractions, human distal colon circular muscle) did it give?
**A.** 34 µM

**Q.** What about the “effect of TRPM8 antagonist on the inhibition of contractions” value ([1]; pretreatment with 5-BT (10^−5 M)) of the same compound?
**A.** inhibited by pretreatment with 5-BT

**Q.** And the IC50 ([1]; spontaneous contractions, human circular smooth muscle in vitro)?
**A.** 8 mg/L

**Q.** What about the “×Menthol” value (TRPM8; TRPM8 relative potency as repeated in Table 4) of the same compound?
**A.** 2.2

**Q.** And the “Relative Potency” value (TRPM8; relative to menthol = 1.0 (Table 2))?
**A.** 2.2

**Q.** And the “Inhibition of Heat Edema (±S.E.M.)” value [2]?
**A.** 12.9% and 12.9 ± 2.5 %
